How the values were obtained:
[1] = Retention time of the compound by HPLC analysis; type: physicochemical
[2] = tested on: Human immunodeficiency virus 2; assay: Antiviral activity against HIV-2 ROD infected in human MT4 cells assessed as protection from virus-induced cytopathicity after 4 days by MTT assay; type: functional, organism-based; settings: Human immunodeficiency virus 2, ISOLATE ROD, MT4, 96 h
[3] = tested on: Human immunodeficiency virus 1; assay: Antiviral activity against HIV-1 RES056 harboring reverse transcriptase K103N/Y181C double mutant infected in human MT4 cells assessed as protection from virus-induced cytopathicity after 4 days by MTT assay; type: functional, organism-based; settings: Human immunodeficiency virus 1, RES056, MT4, 96 h
[4] = tested on: Human immunodeficiency virus 1; assay: Antiviral activity against wild type HIV1 3B infected in human MT4 cells assessed as protection from virus-induced cytopathicity after 4 days by MTT assay; type: functional, organism-based; settings: Human immunodeficiency virus 1, 3B, MT4, 96 h
[5] = Cytotoxicity against human MT4 cells assessed as reduction of cell viability after 4 days by MTT assay; type: cell-based
[6] = Selectivity index, ratio of CC50 for human MT4 cells to EC50 for HIV1 3B infected in human MT4 cells; type: toxicity, cell-based; settings: HIV1 3B infected MT4 cells, read-out: Selectivity Index
[7] = molecular target: Human immunodeficiency virus type 1 reverse transcriptase (Human immunodeficiency virus 1, UniProt Q72547); assay: Inhibition of HIV1 recombinant wild type reverse transcriptase p66/p51 assessed as reduction in biotin-labeled dUTP incorporation into DNA using polyr(A) x oligo(dT)16 template/primer hybrid

Row | Structure (SMILES) | Retention_time [1] [min] | EC50 [2] [µM] | EC50 [3] [µM] | EC50 [4] [µM] | CC50 at 96 h [5] [µM] | selectivity ratio [6] | IC50 [7] [µM]
1 | Cc1cc(C#N)cc(C)c1Oc1ccnc(NC2CCN(CC(=O)Nc3ccc(C#N)cc3)CC2)n1 | 10.72 | > 0.602 | > 0.602 | 0.0029 | 0.602 | 208 | 
2 | Cc1cccc(NC(=O)CN2CCC(Nc3nccc(Oc4c(C)cc(C#N)cc4C)n3)CC2)c1 | 11.43 | > 1.68 | > 1.68 | 0.0066 | 1.68 | 254 | 
3 | Cc1cc(S(N)(=O)=O)ccc1NC(=O)CN1CCC(Nc2nccc(Oc3c(C)cc(C#N)cc3C)n2)CC1 | 9.61 | > 1.64 | > 1.64 | 0.0053 | 1.64 | 309 | 0.166
4 | Cc1cc(C#N)cc(C)c1Oc1ccnc(NC2CCN(CC(=O)Nc3ccc([N+](=O)[O-])cc3)CC2)n1 | 11.13 | > 0.518 | > 0.518 | 0.0058 | 0.518 | 89 | 0.136
5 | Cc1ccc(NC(=O)CN2CCC(Nc3nccc(Oc4c(C)cc(C#N)cc4C)n3)CC2)cc1C | 12.21 | > 1.51 | > 1.51 | 0.0085 | 1.51 | 177 | 
6 | Cc1ccccc1NC(=O)CN1CCC(Nc2nccc(Oc3c(C)cc(C#N)cc3C)n2)CC1 | 11.33 | > 1.25 | > 1.25 | 0.0616 | 1.25 | 20 | 
7 | Cc1ccc(NC(=O)CN2CCC(Nc3nccc(Oc4c(C)cc(C#N)cc4C)n3)CC2)cc1 | 11.29 | > 2.02 | > 2.02 | 0.0055 | 2.02 | 367 | 0.181
8 | Cc1cc(C#N)cc(C)c1Oc1ccnc(NC2CCN(CC(=O)Nc3ccc(F)cc3)CC2)n1 | 10.85 | > 1.81 | > 1.81 | 0.0042 | 1.81 | 431 | 0.204
9 | Cc1cc(C#N)cc(C)c1Oc1ccnc(NC2CCN(CC(=O)Nc3ccccc3)CC2)n1 | 10.9 | > 1.82 | > 1.82 | 0.0033 | 1.82 | 551 | 0.199
10 | Cc1cc(C#N)cc(C)c1Oc1ccnc(NC2CCN(CC(=O)Nc3ccccc3F)CC2)n1 | 11.43 | > 119 | > 119 | 0.007 | 119 | 16900 | 0.207
11 | Cc1cc(C#N)cc(C)c1Oc1ccnc(NC2CCN(CC(=O)Nc3ccc(Cl)cc3Cl)CC2)n1 | 13.21 | > 1.75 | > 1.75 | 0.118 | 1.75 | 15 | 
12 | Cc1cc(C#N)cc(C)c1Oc1ccnc(NC2CCN(CC(=O)Nc3cccc(Cl)c3)CC2)n1 | 11.95 | > 1.26 | > 1.26 | 0.0059 | 1.26 | 214 | 
13 | Cc1cc(C#N)cc(C)c1Oc1ccnc(NC2CCN(CC(=O)Nc3ccc(O)cc3)CC2)n1 | 10.25 | > 2.18 | > 2.18 | 0.0021 | 2.18 | 1040 | 0.102
14 | Cc1cc(C#N)cc(C)c1Oc1ccnc(NC2CCN(CC(=O)Nc3ccccc3[N+](=O)[O-])CC2)n1 | 11.75 | > 59.3 | > 59.3 | 0.0419 | 59.3 | 1420 | 0.193
15 | CC(C)Nc1cccnc1N1CCN(C(=O)c2cc3cc(NS(C)(=O)=O)ccc3[nH]2)CC1 [DELAVIRDINE] |  |  | > 43.8 |  | > 43.8 | > 67 | 
16 | COc1ccc(NC(=O)CN2CCC(Nc3nccc(Oc4c(C)cc(C#N)cc4C)n3)CC2)cc1 | 10.82 | > 1.56 | > 1.56 | 0.0035 | 1.56 | 446 | 
17 | Cc1cc(C#N)cc(C)c1Oc1ccnc(NC2CCN(CC(=O)Nc3ccc(Cl)c(Cl)c3)CC2)n1 | 12.62 | > 1.28 | > 1.28 | 0.0209 | 1.28 | 61 | 
18 | Cc1cc(C#N)cc(C)c1Oc1ccnc(NC2CCN(CC(=O)Nc3cccc(F)c3)CC2)n1 | 11.41 | > 1.41 | > 1.41 | 0.0061 | 1.41 | 231 | 
19 | Cc1cc(C#N)cc(C)c1Oc1ccnc(NC2CCN(CC(=O)Nc3cc(Cl)cc(Cl)c3)CC2)n1 | 13.08 | > 3.52 | > 3.52 | 0.0761 | 3.52 | 46 | 
20 | Cc1cc(C#N)cc(C)c1Oc1ccnc(NC2CCN(CC(=O)Nc3ccccc3Cl)CC2)n1 | 12.14 | > 1.51 | > 1.51 | 0.0346 | 1.51 | 44 | 
21 | Cc1cc(C#N)cc(C)c1Oc1ccnc(NC2CCN(CC(=O)Nc3ccc(Br)cc3)CC2)n1 | 11.85 | > 1.48 | > 1.48 | 0.0062 | 1.48 | 238 | 
22 | Cc1cc(C#N)cc(C)c1Oc1ccnc(NC2CCN(CC(=O)Nc3ccc(C#N)cc3F)CC2)n1 | 11.27 | > 1.96 | > 1.96 | 0.008 | 1.96 | 245 | 0.174
23 | Cc1cc(C#N)cc(C)c1Oc1ccnc(NC2CCN(CC(=O)Nc3ccc(S(N)(=O)=O)cc3)CC2)n1 | 9.11 | > 1.61 | > 1.61 | 0.0019 | 1.61 | 845 | 0.116
24 | Cc1cc(C#N)cc(C)c1Oc1ccnc(NC2CCN(CC(=O)Nc3ccc(Cl)cc3)CC2)n1 | 11.62 | > 0.998 | > 0.998 | 0.0061 | 0.998 | 164 | 
25 | Cc1cc(C#N)cc(C)c1Oc1nc(Nc2ccc(C#N)cc2)nc(N)c1Br [ETRAVIRINE] |  |  | 0.0253 |  | > 4.59 | > 1120 | 
26 | O=C1Nc2ccc(Cl)cc2[C@@](C#CC2CC2)(C(F)(F)F)O1 [EFAVIRENZ] |  |  |  | 0.0063 | > 6.34 |  | 
27 | Cc1cc(C#N)cc(C)c1Oc1ccnc(NC2CCN(CC(=O)Nc3c(Cl)cc(Cl)cc3Cl)CC2)n1 | 11.85 | > 1.5 | > 1.5 | ≥ 0.304 | 1.5 | ≤ 5 | 
28 | Cc1cc(C)cc(NC(=O)CN2CCC(Nc3nccc(Oc4c(C)cc(C#N)cc4C)n3)CC2)c1 | 12.18 | > 2.31 | > 2.31 | 0.0149 | 2.31 | 155 | 
